Results: US8614327B2 (Vertex Pharmaceuticals Incorporated, priority 2004, dated 2013)

Biological target: T1, ΔF508-CFTR (Homo sapiens, UniProt P13569, DEL508-508)
T1 construct: expressed in transfected cells
Assay: Membrane potential optical (FRET/VIPR) assay, identification of potentiator compounds
Assay type: cell-based
Conditions: Table 3, assay not given; for % Activity: relative efficacy
Procedure, shortened: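 Double-addition potentiator screen: compound delivered in gluconate-substituted Cl^--free medium, membrane potential followed via CC2-DMPE/DiSBAC2(3) FRET on VIPR. Cells were ΔF508-CFTR-expressing NIH3T3 mouse fibroblasts, held 2 h at 37° C. then 24 h at 27° C. before assay.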

T1 sequence (P13569 with tags, fused parts or gaps DEL508-508): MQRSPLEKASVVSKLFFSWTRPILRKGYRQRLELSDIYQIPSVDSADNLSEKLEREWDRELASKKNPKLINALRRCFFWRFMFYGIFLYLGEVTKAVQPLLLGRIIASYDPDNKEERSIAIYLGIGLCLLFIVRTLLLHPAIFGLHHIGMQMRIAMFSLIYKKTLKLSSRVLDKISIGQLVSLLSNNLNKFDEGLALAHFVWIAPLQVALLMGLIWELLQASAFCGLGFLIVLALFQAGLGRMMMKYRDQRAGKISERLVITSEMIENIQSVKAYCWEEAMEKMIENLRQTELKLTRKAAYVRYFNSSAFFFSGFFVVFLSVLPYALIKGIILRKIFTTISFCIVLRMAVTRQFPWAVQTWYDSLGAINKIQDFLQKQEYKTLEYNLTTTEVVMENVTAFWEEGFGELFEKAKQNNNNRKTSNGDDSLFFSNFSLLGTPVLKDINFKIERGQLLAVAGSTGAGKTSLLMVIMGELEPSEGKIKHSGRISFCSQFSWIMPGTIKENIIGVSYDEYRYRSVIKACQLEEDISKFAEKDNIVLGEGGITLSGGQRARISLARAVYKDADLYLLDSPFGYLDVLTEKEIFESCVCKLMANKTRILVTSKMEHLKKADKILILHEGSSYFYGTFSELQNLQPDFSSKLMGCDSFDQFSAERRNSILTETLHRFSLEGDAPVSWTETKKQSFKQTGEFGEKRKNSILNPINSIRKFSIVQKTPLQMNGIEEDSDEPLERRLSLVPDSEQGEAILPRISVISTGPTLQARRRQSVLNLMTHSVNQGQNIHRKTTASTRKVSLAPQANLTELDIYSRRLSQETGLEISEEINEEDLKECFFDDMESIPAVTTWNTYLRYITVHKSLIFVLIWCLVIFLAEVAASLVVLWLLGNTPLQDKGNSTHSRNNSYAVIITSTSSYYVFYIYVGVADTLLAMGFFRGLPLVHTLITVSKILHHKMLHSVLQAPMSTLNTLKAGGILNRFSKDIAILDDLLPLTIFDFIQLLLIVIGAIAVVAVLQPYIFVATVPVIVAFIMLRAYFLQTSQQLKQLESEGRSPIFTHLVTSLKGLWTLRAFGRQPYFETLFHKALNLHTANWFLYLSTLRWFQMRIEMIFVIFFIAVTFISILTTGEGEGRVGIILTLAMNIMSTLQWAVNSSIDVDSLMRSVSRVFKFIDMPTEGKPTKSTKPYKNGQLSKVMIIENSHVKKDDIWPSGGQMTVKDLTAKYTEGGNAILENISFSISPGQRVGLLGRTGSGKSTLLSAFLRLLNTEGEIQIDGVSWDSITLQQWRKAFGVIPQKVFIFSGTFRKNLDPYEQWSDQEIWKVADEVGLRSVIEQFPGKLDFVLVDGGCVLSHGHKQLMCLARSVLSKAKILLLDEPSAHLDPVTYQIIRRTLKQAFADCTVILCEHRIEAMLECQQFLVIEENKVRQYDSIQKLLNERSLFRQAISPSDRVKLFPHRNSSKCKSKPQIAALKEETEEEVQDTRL

EC50 [µM] | % Activity | SMILES
< 10 | ++ (between 25% to 100%) | O=C(Nc1cccnc1Oc1ccc(F)cc1)c1c[nH]c2ccccc2c1=O [Compound 147, N-[2-(4-fluorophenoxy)-3-pyridyl]-4-oxo-1H-quinoline-3-carboxamide]
10 to 25 | ++ (between 25% to 100%) | COc1nc2ccccc2c(OC)c1C(=O)Nc1cc(NC(=O)OC(C)(C)C)ccc1C(C)(C)C [Compound 39, [3-[(2,4-dimethoxy-3-quinolyl)carbonylamino]-4-tert-butyl-phenyl]aminoformic acid tert-butyl ester]
10 to 25 | ++ (between 25% to 100%) | Cc1cc2cc(NC(=O)c3c[nH]c4ccccc4c3=O)ccc2[nH]1 [Compound 230, N-(2-methyl-1H-indol-5-yl)-4-oxo-1H-quinoline-3-carboxamide]
< 10 | ++ (between 25% to 100%) | Cc1ccc2c(=O)c(C(=O)Nc3cc4[nH]ccc4cc3C(F)(F)F)c[nH]c2c1 [Compound 576, 7-methyl-4-oxo-N-[5-(trifluoromethyl)-1H-indol-6-yl]-1H-quinoline-3-carboxamide]
25 to 60 | + (<25%) | O=C(Nc1cccc(S(=O)(=O)N2CCCCC2)c1)c1c[nH]c2ccccc2c1=O [Compound 442, 4-oxo-N-[3-(1-piperidylsulfonyl)phenyl]-1H-quinoline-3-carboxamide]
< 10 | ++ (between 25% to 100%) | CCOc1cccc(-c2cc(C(C)(C)C)c(O)cc2NC(=O)c2c[nH]c3ccccc3c2=O)c1 [Compound 43, N-[2-(3-ethoxyphenyl)-5-hydroxy-4-tert-butyl-phenyl]-4-oxo-1H-quinoline-3-carboxamide]
< 10 | ++ (between 25% to 100%) | O=C(Nc1cc2[nH]ccc2cc1F)c1c[nH]c2cccc(O)c2c1=O [Compound 596, N-(5-fluoro-1H-indol-6-yl)-5-hydroxy-4-oxo-1H-quinoline-3-carboxamide]
< 10 | ++ (between 25% to 100%) | O=C(Nc1ccc(OC(F)(F)F)cc1)c1c[nH]c2ccccc2c1=O [Compound 176, 4-oxo-N-[4-(trifluoromethoxy)phenyl]-1H-quinoline-3-carboxamide]
< 10 | ++ (between 25% to 100%) | CC(C)c1ccc(NC(=O)c2c[nH]c3ccccc3c2=O)c(C(F)(F)F)c1 [Compound 47, N-[4-isopropyl-2-(trifluoromethyl)phenyl]-4-oxo-1H-quinoline-3-carboxamide]
< 10 | ++ (between 25% to 100%) | COc1cc(NC(=O)c2c[nH]c3cccc(O)c3c2=O)cc(C(F)(F)F)c1 [Compound 502, 5-hydroxy-N-[3-methoxy-5-(trifluoromethyl)phenyl]-4-oxo-1H-quinoline-3-carboxamide]
< 10 | ++ (between 25% to 100%) | CC(C)(C)c1ccc(NC(=O)c2c[nH]c3ccccc3c2=O)cc1OCCO [Compound 458, N-[3-(2-hydroxyethoxy)-4-tert-butyl-phenyl]-4-oxo-1H-quinoline-3-carboxamide]
< 10 | ++ (between 25% to 100%) | O=C(Nc1cc2c(cc1O)CCCC2)c1c[nH]c2ccccc2c1=O [Compound 56, 1,4-dihydro-N-(1,2,3,4-tetrahydro-6-hydroxynaphthalen-7-yl)-4-oxoquinoline-3-carboxamide]
< 10 | ++ (between 25% to 100%) | CC(C)(C)c1cc2cc[nH]c2cc1NC(=O)c1c[nH]c2cc(OC(F)(F)F)ccc2c1=O [Compound 632, 4-oxo-N-(5-tert-butyl-1H-indol-6-yl)-7-(trifluoromethoxy)-1H-quinoline-3-carboxamide]
< 10 | ++ (between 25% to 100%) | CC(C)(C)c1cc2cc[nH]c2cc1NC(=O)c1c[nH]c2cccc(F)c2c1=O [Compound 656, 5-fluoro-4-oxo-N-(5-tert-butyl-1H-indol-6-yl)-1H-quinoline-3-carboxamide]
